Experimental findings from patent US20150038435A1, “N-TERMINALLY MODIFIED OLIGOPEPTIDES AND USES THEREOF” (Novo Nordisk A/S, priority 2012, published 2015) are described below.

Starred links: 1 amine or outer side, 2 acyl side, 3 side chain; linkers in the order of their positions; H or OH if unused. Non-standard residues stand in square brackets, D forms with d. Primed or numbered codes have the meaning given here. No end group written: not given here. *: point of attachment. γGlu = O=C(O)[C@H](CCC(=O)[*:2])N[*:1]; Stearoyl = CCCCCCCCCCCCCCCCCC(=O)*; Palmitoyl = CCCCCCCCCCCCCCCC(=O)*; Myristoyl = CCCCCCCCCCCCCC(=O)*; Lauroyl = CCCCCCCCCCCC(=O)*; PEG12′ = not defined here

The subject of assay [1] is Chymotrypsin. The assay is described as follows: Inhibition of enzymatic degradation of a model GLP-1 (FRET substrate) by chymotrypsin. Type of assay: biochemical. The note with it: for EC50: read-out: EC50 Chymotrypsin (0.001 mg/ml), 0.001 mg/ml chymotrypsin, 37° C., ± standard error if at least 3 measurements. The text has this:
(§1) The use of Förster resonance energy transfer (FRET), also known as fluorescence resonance energy transfer, substrates to monitor activity of proteolytic enzymes is known in the field (for example Anjuere, F. et al. (1993). Biochem J 291 (Pt 3), 869-73).
(§2) Model GLP-1 analogue was designed as FRET substrate by incorporation of 7-Methoxycoumarin-4-acetic acid (MCA) group as the donor chromophore and dinitrophenol group (DNP) as the acceptor chromophore.
(§3) An assay following the increase in fluorescence as a function of time was established in 96 well format using Varioskan Flash Multimode Meter (Thermo Scientific). Each well contained 70 μl of Dulbecco's phosphate buffer saline (Invitrogen catalogue #14190-094), 10 μl of 100 μM GLP-1 FRET substrate, 10 μl of N-terminally acylated peptide or oligopeptide of the invention in varying concentration and 10 μl of a stock solution of an enzyme (chymotrypsin, trypsin, elastase, etc.). The incubations were performed at 37° C. Fluorescence (320 nm excitation wavelength and 405 nm emission wavelength) was measured immediately after addition of the enzyme to the 96 well plate and also every minute for at least the next 30 minutes. The concentration of the enzyme was optimized to allow determination of slopes for the time course of initial fluorescence increase with and without the N-terminally acylated peptides or oligopeptides of the invention. The slopes were determined by linear regression of the linear part of the fluorescence trace (for example, the first 10 min of the reaction). Each assay was performed in duplicate and average of the two traces was included in the calculations. The relative effect of N-terminally acylated peptide or oligopeptides of the invention on enzymatic degradation of GLP-1 FRET substrate was obtained by comparison of the slopes achieved by the same concentration of the N-terminally acylated peptide or oligopeptides. […] This was done by plotting the slopes achieved with different concentrations of the N-terminally acylated peptide or oligopeptides of the invention as a function of their concentrations and fitting the experimental results using, for example, sigmoidal logistic regression (2 parameters, Sigma Plot v 11). Inhibition constants for the interaction between the N-terminally acylated peptide or oligopeptides of the invention and proteolytic enzymes were also obtained by performing the assay described above with varying concentrations of the inhibitor and substrate and analyzing the results, for example, by double reciprocal transformation as known to the person skilled in the art and described for example in Hubalek, F. et al., J. Med. Chem. 47, 1760-1766 (2004).
(§4) The EC50 was determined for the following compounds. EC50±standard error is reported if the results of at least 3 independent measurements were available.

The subject of assay [2] is Trypsin. Description: Inhibition of enzymatic degradation of a model GLP-1 (FRET substrate) by trypsin. Format: biochemical. As to conditions: for EC50: read-out: EC50 Trypsin (0.001 mg/ml), 0.001 mg/ml trypsin, 37° C.
From the text: as §1, §2, §3, §4

Setting [3] is: compound 0.1 mM, buffer containing 8% DMSO.

As to “N-tetradecanoyl-γGlu-γGlu-Ala-Pro-Phe-OH [Example 169]”, in assay [1], the EC50 was determined as 287 µM.

Turning to “N-dodecanoyl-βAla-βAla-Pro-Phe-Pro-OH [Example 6]”, the “Slope of the initial increase in fluorescence obtained during incubation with 0.001 mg/ml Trypsin” value in assay [2] (compound 1 mM) is listed as 0.35. In addition, the “Slope of the initial increase in fluorescence obtained during incubation with 0.001 mg/ml Chymotrypsin” value in assay [1] (compound 1 mM) is given as 0.24.

Take “N-tetradecanoyl-Thr-Ala-Ala-Pro-Phe-OH [Example 173]”: the results for the EC50 in assay [2] and in assay [1] were 93 µM and 51 µM, respectively.

Take “N-octadecanoyl-γGlu-Ala-Ala-Pro-Phe-OH [Example 160]”: the EC50 in assay [2] turned out to be 16 µM; in assay [1] it was 17 µM.

Turning to “N-dodecanoyl-γGlu-His-Ala-Ala-Pro-Tyr-OH [Example 190]”, the EC50 in assay [1] is more than 500 µM.

Take “N-hexadecanoyl-γGlu-Ala-Ala-Pro-Phe-OH [Example 188]”: the values for the EC50 in assay [2] and in assay [1] were 67 µM and 71 µM, respectively.

In the case of “N-tetradecanoyl-Leu-betaAla-Ala-Pro-DPhe-OH [Example 145]”, the EC50 in assay [2] was found to be 43 µM; in assay [1] it was 83 µM.

Regarding “N-tetradecanoyl-γGlu-D-Ala-D-Ala-D-Pro-D-Phe-OH [Example 156]”, the EC50 was more than 500 µM in assay [2] and 428 µM in assay [1].

On to “N-dodecanoyl-Ala-Ala-Ala-Ala-Ala-Pro-Phe-OH [Example 141]”, for which the results for the EC50 in assay [2] and in assay [1] were 187 µM and 57 µM, respectively.

“N-tetradecanoyl-γGlu-D-Ala-D-Pro-D-Phe-OH [Example 183]”: the EC50 in assay [1] turned out to be 386 µM.

For the substance “N-dodecanoyl-Lys-Ala-Ala-Pro-Tyr-OH [Example 44]”, the “Slope of the initial increase in fluorescence obtained during incubation with 0.001 mg/ml Trypsin” value in assay [2] (setting [3]) was determined as 0.96. The “Slope of the initial increase in fluorescence obtained during incubation with 0.001 mg/ml Chymotrypsin” value in assay [1] (setting [3]) amounted to 0.00.

“N-hexadecanoyl-γGlu-D-Ala-D-Ala-D-Pro-D-Phe-OH [Example 157]”: the results for the EC50 in assay [2] and in assay [1] were 88 µM and 57 µM, respectively.

Turning to “N-hexadecanoyl-γGlu-Ala-Pro-Phe-OH (Palmitoyl-[γGlu]APF-OH; SMILES CCCCCCCCCCCCCCCC(=O)N[C@@H](CCC(=O)N[C@@H](C)C(=O)N1CCC[C@H]1C(=O)N[C@@H](Cc1ccccc1)C(=O)O)C(=O)O) [Example 149]”, the EC50 in assay [2] was found to be 57 µM; in assay [1] it was 48 µM.

“N-tetradecanoyl-eLys-His-Ala-Arg-Pro-Phe-OH [Example 196]”: the EC50 in assay [2] came to 75 µM; in assay [1], 6 µM.

Take “N-tetradecanoyl-γGlu-Ala-Pro-Trp-OH (Myristoyl-[γGlu]APW-OH; SMILES CCCCCCCCCCCCCC(=O)N[C@@H](CCC(=O)N[C@@H](C)C(=O)N1CCC[C@H]1C(=O)N[C@@H](Cc1c[nH]c2ccccc12)C(=O)O)C(=O)O) [Example 176]”: the EC50 in assay [2] amounted to 63 µM; in assay [1] it was 105 µM.

As to “N-tetradecanoyl-His-Ala-Ala-Pro-Phe-OH [Example 166]”, the figures for the EC50 in assay [2] and in assay [1] were 69 µM and 61 µM, respectively.

Regarding “N-dodecanoyl-Ala-Pro-Phe-OH [Example 35]”, the EC50 in assay [1] was determined as 182 µM.

As to “N-hexadecanoyl-Glu-Ala-Ala-Pro-D-Phe-OH [Example 186]”, the EC50 in assay [1] was found to be 56 µM.

As for “N-tetradecanoyl-Ala-Ala-Ala-Ala-Pro-Phe-OH [Example 140]”, the EC50 in assay [2] worked out at 374 µM; in assay [1] it was 28 µM.

Take “N-octadecanoyl-γGlu-Ala-Pro-Phe-OH (Stearoyl-[γGlu]APF-OH; SMILES CCCCCCCCCCCCCCCCCC(=O)N[C@@H](CCC(=O)N[C@@H](C)C(=O)N1CCC[C@H]1C(=O)N[C@@H](Cc1ccccc1)C(=O)O)C(=O)O) [Example 150]”: the EC50 in assay [2] was 22 µM; in assay [1] it was 13 µM.

Take “N-tetradecanoyl-D-Ala-D-Ala-D-Pro-D-Phe-OH [Example 184]”: the EC50 worked out at 38 µM in assay [2] and 69 µM in assay [1].

As for “N-tetradecanoyl-Leu-Ala-Ala-Pro-Tyr-OH [Example 142]”, the EC50 in assay [2] amounted to 37 µM; in assay [1], 20 µM.

With “N-tetradecanoyl-γGlu-γGlu-Pro-Phe-OH [Example 170]”, the EC50 in assay [1] is more than 500 µM.

Consider “N-tetradecanoyl-His-Ala-Trp-Pro-Phe-OH [Example 192]”, for which the EC50 in assay [2] was 303 µM; in assay [1] it was 34 µM.

Consider “N-tetradecanoyl-γGlu-γGlu-Phe-Phe-OH [Example 171]”, for which the EC50 in assay [1] stood at 452 µM.

Consider “N-dodecanoyl-Ala-Ala-Pro-His-OH (Lauroyl-AAPH-OH; SMILES CCCCCCCCCCCC(=O)N[C@@H](C)C(=O)N[C@@H](C)C(=O)N1CCC[C@H]1C(=O)N[C@@H](Cc1c[nH]cn1)C(=O)O) [Example 180]”, for which the EC50 in assay [1] is more than 500 µM.

Take “N-tetradecanoyl-Thr-Ala-Ala-Pro-Tyr-OH [Example 158]”: the EC50 was 112 µM in assay [2] and 58 µM in assay [1].

Consider “N-tetradecanoyl-γGlu-Ala-Pro-D-Trp-OH [Example 177]”, for which the EC50 in assay [2] was determined as 200 µM; in assay [1] it was 95 µM.

With “N-dodecanoyl-γGlu-Ala-Ala-Pro-Arg-Pro-OH [Example 27]”, the EC50 in assay [1] was more than 500 µM.

Take “N-hexadecanoyl-Ala-Ala-Pro-Phe-OH (Palmitoyl-AAPF-OH) [Example 29]”: the EC50 in assay [2] is more than 500 µM; in assay [1], 23 ± 2 µM.

“N-tetradecanoyl-Glu-Ala-Ala-Pro-Trp-OH [Example 187]”: the EC50 was 130 µM in assay [2] and 14 µM in assay [1].

As for “N-hexadecanoyl-γGlu-DAla-DPro-DPhe-OH [Example 155]”, the EC50 in assay [2] came out at 76 µM; in assay [1] it was 56 µM.

With “N-tetradecanoyl-Glu-Ala-Ala-Pro-Phe-OH [Example 163] (Myristoyl-EAAPF-OH; SMILES CCCCCCCCCCCCCC(=O)N[C@@H](CCC(=O)O)C(=O)N[C@@H](C)C(=O)N[C@@H](C)C(=O)N1CCC[C@H]1C(=O)N[C@@H](Cc1ccccc1)C(=O)O)”, the EC50 in assay [2] is 271 µM; in assay [1] it was 94 µM.

For the substance “N-icosanoyl-γGlu-Ala-Ala-Pro-Phe-OH [Example 161]”, the EC50 is 7 µM in assay [2] and 4 µM in assay [1].

For “N-tetradecanoyl-Ala-Ala-Pro-D-Phe-OH [Example 185]”, the EC50 in assay [2] is 44 µM; in assay [1], 73 µM.

Regarding “PEG12-Ala-Ala-Pro-Phe-OH ([PEG12′]AAPF-OH) [Example 167]”, the EC50 in assay [1] was more than 500 µM.

In the case of “N-hexadecanoyl-γGlu-D-Ala-D-Pro-D-Phe-OH [Example 182]”, the EC50 in assay [2] was 33 µM; in assay [1], 67 µM.

For the substance “N-dodecanoyl-Leu-Thr-Trp-Pro-Tyr-OH [Example 154]”, the EC50 in assay [2] stood at 151 µM; in assay [1] it was 27 µM.

As for “N-tetradecanoyl-γGlu-Ala-Pro-D-Phe-OH [Example 168]”, the EC50 in assay [1] was 377 µM.

Regarding “N-hexadecanoyl-Thr-Ala-Ala-Pro-Phe-OH [Example 175]”, the EC50 worked out at 31 µM in assay [2] and 17 µM in assay [1].

Turning to “N-tetradecanoyl-Glu-Ala-Ala-Pro-Phe-OH [Example 162]”, the values for the EC50 in assay [2] and in assay [1] were 58 µM and 94 µM, respectively.

Regarding “N-tetradecanoyl-Glu-Ala-Ala-Pro-Trp-OH [Example 143]”, the EC50 in assay [2] came to 388 µM; in assay [1], 14 µM.

Regarding “N-tetradecanoyl-Glu-Ala-Ala-Pro-D-Phe-OH [Example 174]”, in assay [1], the EC50 came out at 211 µM.

With “N-tetradecanoyl-Arg-His-Ala-Arg-Pro-Phe-OH [Example 197]”, the EC50 in assay [2] was found to be 16 µM; in assay [1], 2 µM.

Regarding “N-tetradecanoyl-γGlu-Ala-Arg-Pro-Phe-OH [Example 179]”, the figures for the EC50 in assay [2] and in assay [1] were 80 µM and 84 µM, respectively.

Turning to “N-tetradecanoyl-γGlu-His-Ala-Arg-Pro-Phe-OH [Example 194]”, the EC50 in assay [2] is 84 µM; in assay [1], 19 µM.

For “N-tetradecanoyl-γGlu-Ala-Pro-Phe-OH [Example 181]”, the EC50 in assay [1] was determined as 300 µM.

Regarding “N-tetradecanoyl-Glu-Ala-Pro-Phe-OH (Myristoyl-EAPF-OH; SMILES CCCCCCCCCCCCCC(=O)N[C@@H](CCC(=O)O)C(=O)N[C@@H](C)C(=O)N1CCC[C@H]1C(=O)N[C@@H](Cc1ccccc1)C(=O)O) [Example 152]”, the EC50 in assay [1] stood at 293 µM.
